The text below walks through data of PubChem BioAssay (NCI).

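These data come from cells grown in 96-well plates and exposed to compound for 48 hours at five concentrations. Abbreviation: GI50, concentration required for 50% inhibition of growth. TGI marks complete inhibition of growth.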

One assay relates to PC-3 prostate. Briefly: NCI-60 cell line screen, 48 h.
With `CN(CCCn1c2c(c3ccccc3c1=O)C(=O)c1ccccc1-2)CCCn1c2c(c3ccccc3c1=O)C(=O)c1ccccc1-2`, the GI50 is 0.29 µM.
On to `C=C1C(=O)O[C@H]2[C@H]1CC/C(COC(=O)NCc1cn(C)c3ccccc13)=C\CC[C@@]1(C)O[C@@H]21`, for which the GI50 was 1.76 µM and the TGI is 4.79 µM.

Another assay has as its system SF-268 CNS. Briefly: NCI-60 cell line screen, 48 h.
As for `CCN(CC)c1c(C(=O)/C=C/c2ccc(OC)cc2)c(-c2ccccc2)nn(C)c1=O`, the TGI is 73.1 µM.
The same measure, in the same setting: with `CN1C(=Nc2ccccc2)SC1=Nc1ccccc1` the figure was > 100 µM.
With `Oc1ccccc1/C=C/c1csnn1`, the TGI is > 100 µM.
In the case of `CC(=O)CC(=O)OC1CC(C)CCC1C(C)C` (configuration not stated), the TGI is > 100 µM.
As for `CP1(=O)CCCCC1`, the TGI is > 100 µM.
In turn, `Cc1ccc(S(=O)(=O)OC2CSS(=O)CC2OS(=O)(=O)c2ccc(C)cc2)cc1` (configuration not stated) displayed a TGI of 30.7 µM.
On the same count and under the same terms, for `O=[N+]([O-])c1cc(C(F)(F)F)cc([N+](=O)[O-])c1CCl` the value was 27.2 µM; for `Nc1ccnc(=O)[nH]1`, > 100 µM.
Turning to `COC(=O)/C(C)=C(/CCC1(C)OCCO1)O[Si](C)(C)C`, the TGI was > 100 µM.
Turning to `COc1cc(C(=O)O[C@H](C(=O)NCCCCCNC(=O)[C@@H](OC(=O)c2cc(OC)cc3c(C)cccc23)[C@]2(C)CO2)[C@]2(C)CO2)c2cccc(C)c2c1`, the GI50 is < 0.0304 µM and the TGI is 0.92 µM.
Consider `CCOC(=O)N1CCN(C=S)CC1`, for which the TGI is > 100 µM.
In the case of `CCc1cc(C(=O)OC)cn1C(=N)c1ccc(Cl)cc1`, the TGI is > 100 µM.
Regarding `Cc1cc(=O)n(-c2ccccc2C)c(C)n1`, the TGI was > 100 µM.
The same measure, in the same setting: with `Oc1c(C(Nc2cccc3cccnc23)c2ccccc2)ccc2cccnc12` (configuration not stated) the figure was > 100 µM.
Regarding `COc1cc2c(c(OC)c1OC)-c1ccc(SC)c(=O)cc1C(CO)C2` (configuration not stated), the GI50 is < 0.01 µM.
`COc1cc([N+](=O)[O-])c(OC)cc1-c1nc2sc(Cl)cn2c1/C(N)=N/C(=N)N`: the GI50 was 4.17 µM and the TGI was determined as 11.8 µM.
Consider `Cc1ccc2nc(NC(=O)C(=O)C(C#N)c3nc4ccccc4s3)sc2c1` (configuration not stated), for which the TGI is > 100 µM.
`O=C([CH-]C(=O)c1ccccc1)c1ccccc1.O=C([CH-]C(=O)c1ccccc1)c1ccccc1.[La+3].[OH-].[OH3+]`: the GI50 was 13.3 µM and the TGI was found to be 59.5 µM.
As to `CN(CCCn1c2c(c3ccccc3c1=O)C(=O)c1ccccc1-2)CCCn1c2c(c3ccccc3c1=O)C(=O)c1ccccc1-2`, the GI50 is 1.64 µM and the TGI was > 100 µM.
As to `COC1CC(OS(=O)(=O)c2ccc([N+](=O)[O-])cc2)C(OC(=O)c2ccccc2)C(C)O1` (configuration not stated), the TGI was > 100 µM.
As for `CCOc1ccccc1N1C(=O)C(=O)C(c2nc3ccccc3o2)C(=O)C1=O`, the TGI is > 100 µM.
Consider `C=C1C(=O)O[C@H]2[C@H]1CC/C(COC(=O)NCc1cn(C)c3ccccc13)=C\CC[C@@]1(C)O[C@@H]21`, for which the GI50 is 1.84 µM and the TGI was determined as 4.95 µM.
In the case of `CCS(CC)(CC)CC1CCCC2=CCC(P(=O)(c3ccccc3)c3ccccc3)CC21` (configuration not stated), the TGI was 26.1 µM.
For `COc1ccc2n[se]nc2c1`, the TGI is > 100 µM.
On to `Cn1cc(C(=O)NCCC(=N)N)cc1NC(=O)C1=[N+](C)C=C(NC(=O)c2cccc(C(=O)NC3=CC(C(=O)Nc4cc(C(=O)NCCC(=N)N)cn4C)=[N+](C)C3)c2)C1`, for which the TGI was > 100 µM.

Another assay concerns SF-295 CNS. The assay can be described thus: NCI-60 cell line screen, 48 h.
`CCN(CC)c1c(C(=O)/C=C/c2ccc(OC)cc2)c(-c2ccccc2)nn(C)c1=O` yielded a TGI of 63.6 µM.
For the compound `CN1C(=Nc2ccccc2)SC1=Nc1ccccc1`, the TGI was > 100 µM.
For the compound `Oc1ccccc1/C=C/c1csnn1`, the TGI is > 100 µM.
Same read-out and setting: for `CC(=O)CC(=O)OC1CC(C)CCC1C(C)C` (configuration not stated) the value was > 100 µM.
With `CP1(=O)CCCCC1`, the TGI was > 100 µM.
In turn, `Cc1ccc(S(=O)(=O)OC2CSS(=O)CC2OS(=O)(=O)c2ccc(C)cc2)cc1` (configuration not stated) gave a TGI of 29.2 µM.
Still for that read-out and setting: with `O=[N+]([O-])c1cc(C(F)(F)F)cc([N+](=O)[O-])c1CCl` the figure was 10.8 µM; with `Nc1ccnc(=O)[nH]1`, > 100 µM; with `COC(=O)/C(C)=C(/CCC1(C)OCCO1)O[Si](C)(C)C`, > 100 µM.
With `COc1cc(C(=O)O[C@H](C(=O)NCCCCCNC(=O)[C@@H](OC(=O)c2cc(OC)cc3c(C)cccc23)[C@]2(C)CO2)[C@]2(C)CO2)c2cccc(C)c2c1`, the GI50 was 2.5 µM and the TGI was 6.75 µM.
For `CCc1cc(C(=O)OC)cn1C(=N)c1ccc(Cl)cc1`, the TGI is > 100 µM.
On the same count and under the same terms, for `Cc1cc(=O)n(-c2ccccc2C)c(C)n1` the value was > 100 µM; for `Oc1c(C(Nc2cccc3cccnc23)c2ccccc2)ccc2cccnc12` (configuration not stated), > 100 µM.
Take `COc1ccc(Br)c(N/N=C2\CCCNC2=O)c1`: the TGI is > 100 µM.
In the case of `COc1cc2c(c(OC)c1OC)-c1ccc(SC)c(=O)cc1C(CO)C2` (configuration not stated), the GI50 is < 0.01 µM and the TGI was > 100 µM.
For `COc1cc([N+](=O)[O-])c(OC)cc1-c1nc2sc(Cl)cn2c1/C(N)=N/C(=N)N` the same measures were 9.94 µM and 36.7 µM.
Take `Cc1ccc2nc(NC(=O)C(=O)C(C#N)c3nc4ccccc4s3)sc2c1` (configuration not stated): the TGI is > 100 µM.
On the same count and under the same terms, with `CC(C)C1CC[C@@H](C)C[C@@]1(O)CC(N)=O` (some centres not stated) the figure was > 100 µM.
Consider `COc1cnc2c(c1)C(=O)c1c-2n(CCCn2ccnc2)c(=O)c2cc(F)ccc12`, for which the GI50 was < 0.01 µM and the TGI was found to be 0.352 µM.
With `CN(CCCn1c2c(c3ccccc3c1=O)C(=O)c1ccccc1-2)CCCn1c2c(c3ccccc3c1=O)C(=O)c1ccccc1-2`, the GI50 is 0.122 µM and the TGI was 9.5 µM.
For `CCC[CH2][Sn]1([CH2]CCC)[O]C(=O)c2cccnc2[O]1`, in that order: 3.12 µM and 10.4 µM.
In the case of `COC1CC(OS(=O)(=O)c2ccc([N+](=O)[O-])cc2)C(OC(=O)c2ccccc2)C(C)O1` (configuration not stated), the TGI was > 100 µM.
The same measure, in the same setting: for `CCOc1ccccc1N1C(=O)C(=O)C(c2nc3ccccc3o2)C(=O)C1=O` the value was > 100 µM.
Turning to `C=C1C(=O)O[C@H]2[C@H]1CC/C(COC(=O)NCc1cn(C)c3ccccc13)=C\CC[C@@]1(C)O[C@@H]21`, the GI50 is 3.27 µM and the TGI was 13.9 µM.
`CCS(CC)(CC)CC1CCCC2=CCC(P(=O)(c3ccccc3)c3ccccc3)CC21` (configuration not stated) showed a TGI of 16.3 µM.
Same read-out and setting: with `COc1ccc2n[se]nc2c1` the figure was > 100 µM; with `Cn1cc(C(=O)NCCC(=N)N)cc1NC(=O)C1=[N+](C)C=C(NC(=O)c2cccc(C(=O)NC3=CC(C(=O)Nc4cc(C(=O)NCCC(=N)N)cn4C)=[N+](C)C3)c2)C1`, > 100 µM.
